Source: the supplement of paper PMC10307832

Compound: CC1=CN=C(N=C1C2=CNC(=C2)C(=O)N[C@H](CO)C3=CC(=CC=C3)Cl)NC4=C(C=C(C=C4)F)Cl [VX-11e] + CC(=O)Nc1cccc(-n2c(=O)n(C3CC3)c(=O)c3c(Nc4ccc(I)cc4F)n(C)c(=O)c(C)c32)c1 [Trametinib] (partner 0.02 µM)
Experiment: relative viability (nuclei count vs DMSO), 5 days (fraction); higher = more cells survive
Method in brief: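 After 5 days of treatment, lung cancer cells in 1536-well plates were fixed and stained in a single step (final 0.05% Triton X-100, 1% formaldehyde, 1 ug/ml Hoechst) and their nuclei counted on 4× images. Treatment had been applied by pin tool the day after seeding as one drug alone or as a fixed anchor-drug dose with five library-drug doses (not always all listed) in √10 steps. Relative viability is the nuclei count of treated wells divided by that of vehicle wells, and values are medians of duplicate plates.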

| Cell Line | relative viability (first compound 0.04 µM) | relative viability (first compound 0.1265 µM) | relative viability (first compound 0.4 µM) | relative viability (first compound 1.265 µM) | relative viability (first compound 4 µM) |
| --- | --- | --- | --- | --- | --- |
| 201T | 0.737 | 0.72 | 0.705 | 0.706 | 0.689 |
| A-427 | 0.73 | 0.657 | 0.708 | 0.694 | 0.379 |
| BEN | 1.08 | 0.845 | 1.06 | 0.798 | 1.1 |
| CAL-12T | 0.235 | 0.243 | 0.285 | 0.229 | 0.228 |
| COR-L23 | 0.481 | 0.441 | 0.323 | 0.328 | 0.188 |
| COR-L 105 | 0.425 | 0.459 | 0.369 | 0.423 | 0.403 |
| ChaGo-K-1 | 0.928 | 0.909 | 0.842 | 0.881 | 0.869 |
| EKVX | 0.385 | 0.353 | 0.293 | 0.395 | 0.207 |
| EMC-BAC-2 | 0.937 | 0.791 | 0.518 | 0.538 | 0.402 |
| EPLC-272H | 0.268 | 0.299 | – | 0.225 | 0.173 |
| H3255 | 0.678 | 0.635 | 0.425 | 0.443 | 0.33 |
| HARA | 0.589 | 0.636 | 0.64 | 0.209 | 0.244 |
| HCC-15 | 0.354 | 0.345 | – | 0.297 | 0.246 |
| HCC-44 | 1.05 | 1.07 | 0.92 | 0.888 | 0.607 |
| HCC-78 | 0.827 | 0.651 | 0.632 | 0.559 | 0.387 |
| HCC-366 | 0.353 | 0.344 | – | 0.289 | 0.187 |
| HCC-827 | 0.555 | 0.568 | 0.454 | 0.549 | 0.274 |
| HOP-62 | 0.381 | 0.428 | 0.296 | 0.179 | 0.151 |
| LC-2-ad | 0.998 | 0.856 | 0.881 | 0.755 | 0.537 |
| LCLC-97TM1 | 0.21 | 0.179 | 0.17 | – | 0.0986 |
| LCLC-103H | 0.67 | 0.633 | 0.689 | 0.628 | 0.558 |
| LK-2 | 0.831 | 0.668 | 0.806 | 0.234 | 0.312 |
| LOU-NH91 | 0.813 | 0.73 | – | 0.768 | 0.691 |
| LU99A | 0.504 | 0.316 | 0.421 | 0.272 | 0.258 |

| Cell Line | relative viability (first compound 0.04 µM) | relative viability (first compound 0.1265 µM) | relative viability (first compound 0.4 µM) | relative viability (first compound 1.265 µM) | relative viability (first compound 4 µM) |
| --- | --- | --- | --- | --- | --- |
| LXF-289 | 0.729 | 0.652 | – | 0.626 | 0.498 |
| NCI-H23 | 0.276 | 0.339 | 0.287 | 0.223 | 0.219 |
| NCI-H322M | 0.468 | 0.484 | 0.426 | 0.586 | 0.46 |
| NCI-H358 | 0.0982 | 0.135 | 0.0751 | 0.121 | 0.112 |
| NCI-H441 | 0.448 | 0.485 | – | 0.278 | 0.325 |
| NCI-H460 | 0.134 | 0.161 | 0.0116 | 0.0437 | 0.0311 |
| NCI-H520 | 0.647 | 0.668 | 0.528 | 0.481 | 0.22 |
| NCI-H596 | 0.754 | 0.751 | 0.712 | 0.645 | 0.556 |
| NCI-H647 | 0.51 | 0.358 | 0.211 | 0.163 | 0.217 |
| NCI-H650 | 1.04 | 0.958 | 0.994 | 0.64 | 0.381 |
| NCI-H661 | 0.568 | 0.542 | 0.476 | 0.506 | 0.376 |
| NCI-H727 | 0.415 | 0.374 | 0.379 | 0.365 | 0.346 |
| NCI-H838 | 0.457 | 0.505 | 0.513 | 0.484 | 0.455 |
| NCI-H1355 | 0.406 | 0.411 | 0.372 | 0.33 | 0.221 |
| NCI-H1395 | 1 | 0.942 | – | 0.895 | 0.617 |
| NCI-H1437 | 0.539 | 0.472 | 0.574 | 0.358 | 0.305 |
| NCI-H1648 | – | 0.406 | 0.5 | 0.376 | 0.291 |
| NCI-H1650 | 0.76 | 0.589 | 0.562 | 0.553 | 0.397 |
| NCI-H1651 | 0.881 | 0.808 | 0.78 | 0.691 | 0.781 |
| NCI-H1666 | 0.866 | 0.77 | – | 0.848 | 0.726 |
| NCI-H1734 | 0.619 | 0.675 | 0.536 | 0.557 | 0.375 |
| NCI-H1755 | 0.751 | 0.755 | 0.78 | 0.778 | 0.612 |
| NCI-H1792 | – | 0.392 | – | 0.322 | 0.102 |
| NCI-H1793 | – | 0.316 | – | 0.344 | 0.27 |

| Cell Line | relative viability (first compound 0.04 µM) | relative viability (first compound 0.1265 µM) | relative viability (first compound 0.4 µM) | relative viability (first compound 1.265 µM) | relative viability (first compound 4 µM) |
| --- | --- | --- | --- | --- | --- |
| NCI-H1915 | 0.305 | 0.284 | 0.233 | 0.204 | 0.114 |
| NCI-H1944 | 0.468 | 0.441 | 0.343 | 0.347 | 0.282 |
| NCI-H1975 | 0.341 | 0.295 | 0.171 | 0.255 | 0.21 |
| NCI-H1993 | – | 0.493 | 0.576 | 0.506 | 0.451 |
| NCI-H2009 | 0.22 | 0.209 | 0.247 | 0.162 | 0.169 |
| NCI-H2023 | 0.601 | 0.495 | 0.391 | 0.292 | 0.171 |
| NCI-H2085 | 0.495 | 0.516 | 0.524 | 0.482 | 0.497 |
| NCI-H2087 | 0.255 | 0.182 | – | 0.181 | 0.182 |
| NCI-H2126 | 0.543 | 0.539 | 0.575 | 0.523 | 0.473 |
| NCI-H2170 | 0.805 | 0.913 | 0.89 | 0.854 | 0.819 |
| NCI-H2228 | 0.518 | 0.466 | 0.0868 | 0.273 | 0.128 |
| NCI-H2342 | – | 0.741 | 0.765 | 0.858 | 0.823 |
| NCI-H2347 | 0.282 | 0.261 | 0.297 | 0.241 | 0.267 |
| NCI-H2405 | 0.716 | 0.582 | 0.271 | 0.649 | 0.283 |
| NCI-H3122 | 0.236 | 0.239 | 0.177 | 0.29 | 0.148 |
| PC-3 [JPC-3] | 0.671 | 0.653 | 0.59 | 0.572 | 0.527 |
| PC-14 | 0.734 | 0.697 | 0.624 | 0.413 | 0.216 |
| RERF-LC-KJ | 0.888 | 0.766 | 0.897 | 0.921 | 0.667 |
| SK-LU-1 | 0.427 | 0.332 | 0.179 | 0.25 | 0.274 |
| SK-MES-1 | 0.566 | 0.486 | 0.399 | 0.338 | 0.27 |
| SW 900 | 0.826 | 0.761 | – | 0.483 | 0.605 |
| SW 1573 | – | 0.567 | 0.498 | 0.401 | 0.328 |
| UMC-11 | 0.563 | 0.626 | 0.563 | 0.357 | 0.551 |
